Each compound was assayed against T1, AhR (Homo sapiens, UniProt P35869) (assay: Summary of AhR cell functions (translocation; heterodimerization; DNA-binding) in LS180 cells). Details: Table 1 summary class.
T1 sequence (P35869 11-848): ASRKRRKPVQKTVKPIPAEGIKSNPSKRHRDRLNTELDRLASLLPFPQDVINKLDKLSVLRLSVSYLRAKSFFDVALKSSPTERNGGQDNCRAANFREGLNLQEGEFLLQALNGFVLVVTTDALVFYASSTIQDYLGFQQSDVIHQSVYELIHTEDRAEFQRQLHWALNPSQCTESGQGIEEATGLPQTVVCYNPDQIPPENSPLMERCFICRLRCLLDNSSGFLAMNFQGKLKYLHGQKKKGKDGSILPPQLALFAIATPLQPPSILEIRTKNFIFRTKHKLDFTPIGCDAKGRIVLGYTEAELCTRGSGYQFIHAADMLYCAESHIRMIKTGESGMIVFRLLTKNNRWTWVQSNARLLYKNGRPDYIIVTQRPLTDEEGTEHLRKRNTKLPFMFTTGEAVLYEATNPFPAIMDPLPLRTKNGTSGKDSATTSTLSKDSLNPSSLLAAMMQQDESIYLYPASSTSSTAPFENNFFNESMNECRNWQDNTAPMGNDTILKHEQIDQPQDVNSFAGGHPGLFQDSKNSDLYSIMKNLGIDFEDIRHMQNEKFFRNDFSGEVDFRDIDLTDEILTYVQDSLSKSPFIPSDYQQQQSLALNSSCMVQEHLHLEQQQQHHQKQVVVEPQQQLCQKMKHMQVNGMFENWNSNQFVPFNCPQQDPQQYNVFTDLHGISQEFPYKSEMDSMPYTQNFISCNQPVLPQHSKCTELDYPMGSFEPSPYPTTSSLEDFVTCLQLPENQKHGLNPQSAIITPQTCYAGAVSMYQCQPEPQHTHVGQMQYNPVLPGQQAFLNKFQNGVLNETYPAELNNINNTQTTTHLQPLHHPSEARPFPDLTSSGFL
Assay type: cell-based
Design: 0.1% V/V), TCDD (10 nM), and test MICT; host or cells: LS180 cells
Description: LS180 cells (60,000 cells/well) were plated on 8-well chambered slides (94.6140.802, Sarstedt, Nümbrecht, Germany) and allowed to grow overnight. Then, the cells were incubated with DMSO (0.1% V/V), TCDD (10 nM), IND (1000 µM), IPY (200 µM), 3MI (200 µM), TA (200 µM), IAC (100 µM), and IAD (200 µM). The staining procedure was described in detail elsewhere. The images were captured using an IX73 fluorescence microscope (Olympus, Tokyo, Japan). The immunofluorescence signal intensity (of the AhR antibody) in the nucleus was evaluated visually. For percentage calculation, approximately 500 cells from at least four randomly selected fields of view in each specimen were used.
LS180 cells (4 million) were seeded in a 60-mm dish in Dulbecco’s modified Eagle’s medium (D6546; Sigma Aldrich). The following day, the cells were incubated with DMSO (0.1% V/V), TCDD (10 nM), IND (1000 µM), IPY (200 µM), 3MI (200 µM), TA (200 µM), IAC (100 µM), and IAD (200 µM) for 90 min at 37 °C. ChIP assay was performed as we described in detail elsewhere.
Intestinal LS180 cells were incubated with TCDD, tested MICT, and vehicle (DMSO; 0.1% V/V) for 90 min at 37 °C. The Pierce™ Co-Immunoprecipitation Kit (Thermo Fisher Scientific) with covalently coupled AhR antibody (mouse monoclonal, sc-133088, A-3, Santa Cruz Biotechnology) was used. Eluted protein complexes and total parental lysates were resolved on SDS-PAGE gels followed by Western Blot analysis and immuno-detection with ARNT-1 antibody (mouse monoclonal, sc-17812, G-3, Santa Cruz Biotechnology). Chemiluminescent detection was performed using horseradish peroxidase-conjugated anti-mouse secondary antibody (7076S, Cell Signaling Technology) and WesternSure® PREMIUM Chemiluminescent Substrate (LI-COR Biotechnology) by C-DiGit® Blot Scanner (LI-COR Biotechnology).
For NCCc1c[nH]c2ccccc12 [TA, tryptamine], the “AhR Cell Functions (Translocation); Heterodimerization; DNA-Binding” value (shortened to “AhR Cell Functions (Translocation)”) was “highly active–all parameters”.
For c1ccc2[nH]ccc2c1 [IND, indole], the “AhR Cell Functions (Translocation)” value was “highly active–all parameters”.
With NC(=O)Cc1c[nH]c2ccccc12 [IAD, indole-3-acetamide] the “AhR Cell Functions (Translocation)” value was “highly active–all parameters”.
With Cc1c[nH]c2ccccc12 [3MI, skatole] the “AhR Cell Functions (Translocation)” value was “highly active–all parameters”.
For O=C(O)C(=O)Cc1c[nH]c2ccccc12 [IPY, indole-3-pyruvate], the “AhR Cell Functions (Translocation)” value was “highly active–all parameters”.
For O=C(O)/C=C/c1c[nH]c2ccccc12 [IAC, indole-3-acrylate], the “AhR Cell Functions (Translocation)” value was “highly active–all parameters”.
